According to patent publication US20250228759A1, “ANTI-AGING COSMETIC COMPOSITIONS COMPRISING XANTHOMMATIN” (SEASPIRE, INC., priority 2021, published 2025):

Test system: NativeSkin® human skin tissues
Test: Gene expression assay (Genemarkers Standard Skin Panel, qPCR) in ex vivo skin
Format: cell-based
Details: 24 hrs, N=4
Procedure: This study was conducted to determine how different concentrations (0.316 μM-10.0 mM) of xanthommatin influences gene expression in ex vivo NativeSkin® human skin tissues (purchased from Genoskin). NativeSkin® human skin models hold normal skin barrier function, a mature stratum corneum, a functional basal layer and all cell types and skin appendages of in vivo human skin.
Gene expression was assessed using Genemarkers Standard Skin Panel, a qPCR-based gene expression panel which contains 107 target genes potentially relevant in skin biology and 5 endogenous control genes. Gene expression was assessed 24 hrs following application of the test material to the skin tissues.
Formulation design. A gel containing either 0.1% or 0.4% (Table 1) by mass percentage of ammonium xanthommatin (Xa) was prepared. Phase A was initiated by adding 0.3 wt % of carbomer into the water without stirring. Next, the solution was heated to 75° C. with mixing to allow the carbomer to disperse throughout the mixture before ammonium xanthommatin was slowly added and allowed to mix for full dissolution. In a separate reaction vessel, Phase B was created with glycerin (3.5%) and phenoxyethanol (0.95%) and mixed well. Phase B was then added to Phase A. The final phase (Phase C), containing 4% deionized water and 0.4% sodium hydroxide, was added to the main phase for neutralization. The gel was then cooled to room temperature.
Tissue equilibration. Native tissues (Genoskin) were equilibrated overnight at 37° C. with 5% CO2 and ˜95% relative humidity. The following day, the equilibrium medium was removed from each well and replaced with 1.0 mL of maintenance medium.
Treatment Media. Tissues were obtained from the abdomen of a person with Fitzpatrick type 2-3 skin. Genoskin facilities mounted 11 mm biopsies into Nativeskin tissue inserts which were used for genetic analysis 5 days later. N=4 biological replicates per treatment group. For WST-8 (−) control tissue (N=2), 10 μL of Triton X-100 (1%) was applied to the surface of the tissue; two untreated tissues served as the WST-8 control.
Tissue and medium collections. A 2 mm biopsy punch was taken from the center for the WST-8 assay. Remaining tissues were placed in a tube containing RNAlater preservative solutions. Tissues were incubated for 1-2 hrs until RNA was isolated. RNA was isolated using an RNeasy Mini kit (Qiagen) following the manufacturer's instructions. Each sample was vacuum concentrated to at least 200 ng/μL to provide sufficient amount of RNA for cDNA synthesis. RNA concentration and purity were determined using a Nanodrop 2000 spectrophotometer.
cDNA was generated using a High Capacity cDNA Synthesis Kit (Applied Biosystems) and was generated from 2000 ng RNA per sample for OpenArray processing. qPCR data quality and statistical analysis was assessed and performed on the raw data files using ThermoFisher Connect Software (Life Technologies). Statistical analysis was performed using the relative quantitation (RQ) method, where the Cq value of the target gene is normalized to the Cq value of an endogenous control gene (selected from one of GAPDH, GUSB, HPRT1, PPIA, and UBC) to generate the delta Cq values, which were used to normalize variability between the samples.
Statistical analysis. Unpaired t-tests were carried out using the ThermoFisher Connect software.

For NC(CC(=O)c1cccc2oc3cc(=O)c4[nH]c(C(=O)O)cc(=O)c4c-3nc12)C(=O)O (stereo not drawn) [ammonium xanthommatin], the “HAS2 (Hyaluronan synthase 2) gene expression, % Change” value (3.16 mM (0.1%) dose group) was 74%, the “HAS2 (Hyaluronan synthase 2) gene expression, FC (linear fold change)” value (3.16 mM (0.1%) dose group) was 1.74 and the “HAS2 (Hyaluronan synthase 2) gene expression, Rq” value (3.16 mM (0.1%) dose group) was 1.74. The “COL1A1 (collagen) gene expression, % Change” value (10 mM (0.4%) dose group) was 153%, the “COL1A1 (collagen) gene expression, FC (linear fold change)” value (10 mM (0.4%) dose group) was 2.53 and the “COL1A1 (collagen) gene expression, Rq” value (10 mM (0.4%) dose group) was 2.525. For the same compound, the “COL3A1 (collagen) gene expression, % Change” value (10 mM (0.4%) dose group) was 137%, the “COL3A1 (collagen) gene expression, FC (linear fold change)” value (10 mM (0.4%) dose group) was 2.37 and the “COL3A1 (collagen) gene expression, Rq” value (10 mM (0.4%) dose group) was 2.37. The “FOXO3 (subclass of the forkhead family of transcription factors) gene expression, % Change” value (10 mM (0.4%) dose group) was 114%, the “FOXO3 (subclass of the forkhead family of transcription factors) gene expression, FC (linear fold change)” value (10 mM (0.4%) dose group) was 2.14 and the “FOXO3 (subclass of the forkhead family of transcription factors) gene expression, Rq” value (10 mM (0.4%) dose group) was 2.142. The “HSPG2 (Heparan Sulfate Proteoglycan 2) gene expression, % Change” value (10 mM (0.4%) dose group) was 48%, the “HSPG2 (Heparan Sulfate Proteoglycan 2) gene expression, FC (linear fold change)” value (10 mM (0.4%) dose group) was 1.48 and the “HSPG2 (Heparan Sulfate Proteoglycan 2) gene expression, Rq” value (10 mM (0.4%) dose group) was 1.477. The “IGF1R (insulin-like growth factor 1) gene expression, % Change” value (10 mM (0.4%) dose group) was 26%, the “IGF1R (insulin-like growth factor 1) gene expression, FC (linear fold change)” value (10 mM (0.4%) dose group) was 1.26 and the “IGF1R (insulin-like growth factor 1) gene expression, Rq” value (10 mM (0.4%) dose group) was 1.257. The “ITGB4 (Integrin alpha-6/beta-4 is a receptor for laminin) gene expression, % Change” value (10 mM (0.4%) dose group) was 58%, the “ITGB4 (Integrin alpha-6/beta-4 is a receptor for laminin) gene expression, FC (linear fold change)” value (10 mM (0.4%) dose group) was 1.58 and the “ITGB4 (Integrin alpha-6/beta-4 is a receptor for laminin) gene expression, Rq” value (10 mM (0.4%) dose group) was 1.582. The “KRT14 (keratin 14) gene expression, % Change” value (10 mM (0.4%) dose group) was 72%, the “KRT14 (keratin 14) gene expression, FC (linear fold change)” value (10 mM (0.4%) dose group) was 1.72 and the “KRT14 (keratin 14) gene expression, Rq” value (10 mM (0.4%) dose group) was 1.721. The “MFN2 (mitofusin 2) gene expression, % Change” value (10 mM (0.4%) dose group) was 45%, the “MFN2 (mitofusin 2) gene expression, FC (linear fold change)” value (10 mM (0.4%) dose group) was 1.45 and the “MFN2 (mitofusin 2) gene expression, Rq” value (10 mM (0.4%) dose group) was 1.447. The “POLG1/MDP1 (DNA Polymerase Gamma) gene expression, % Change” value (10 mM (0.4%) dose group) was 71%, the “POLG1/MDP1 (DNA Polymerase Gamma) gene expression, FC (linear fold change)” value (10 mM (0.4%) dose group) was 1.71 and the “POLG1/MDP1 (DNA Polymerase Gamma) gene expression, Rq” value (10 mM (0.4%) dose group) was 1.713. For the same compound, the “ST14 (Suppressor of tumorigenicity 14 protein) gene expression, % Change” value (10 mM (0.4%) dose group) was 39%, the “ST14 (Suppressor of tumorigenicity 14 protein) gene expression, FC (linear fold change)” value (10 mM (0.4%) dose group) was 1.39 and the “ST14 (Suppressor of tumorigenicity 14 protein) gene expression, Rq” value (10 mM (0.4%) dose group) was 1.385.
